Measured values as given in US9695155B2, “Herbicidal substituted pyrimidinyloxy benzene compounds” (E. I. DU PONT DE NEMOURS AND COMPANY, priority 2013, dated 2017).

Experiments:
sedge, umbrella = test: Test B flooded paddy test; assay type: in vivo, Cyperus difformis; settings: Flood, 250 g ai/ha, 0 to 100 scale where 0 is no effect and 100 is complete control
Procedure, shortened: (§1)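 Scores from 0 (no effect) to 100 (complete control) are visual comparisons with controls, taken 13 to 15 days after compound was applied into floodwater 3 cm deep around 2-leaf plants.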

barnyardgrass [1] = test: Test C postemergence; assay type: in vivo, Echinochloa crus-galli
Procedure, shortened: (§2)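 Injury was assessed visually against controls 13 to 15 days after application, with 0 meaning no effect and 100 full control; missing entries are shown as a dash. Preemergence sprays hit seeded loam–sand soil, postemergence sprays hit 1- to 4-leaf plants.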

barnyardgrass [2] = test: Test A preemergence; assay type: in vivo, Echinochloa crus-galli
Procedure, shortened: (§3)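 Visual injury scored 0–100 (100 = complete control) against untreated controls about 10 days after treatment in a greenhouse. Test chemicals, formulated with surfactant in non-phytotoxic solvent, were sprayed on soil preemergence or on 2-10 cm, one- to two-leaf plants postemergence.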

morningglory = test: Test C postemergence; assay type: in vivo, Ipomoea coccinea
Procedure, shortened: as §2

giant foxtail = test: Test C postemergence; assay type: in vivo, Setaria faberii
Procedure, shortened: as §2

wild oat = test: Test C postemergence; assay type: in vivo, Avena fatua
Procedure, shortened: as §2

pigweed = test: Test A postemergence; assay type: in vivo, Amaranthus retroflexus
Procedure, shortened: as §3

chickweed = test: Test C postemergence; assay type: in vivo, Stellaria media
Procedure, shortened: as §2

rice = test: Test B flooded paddy test; assay type: in vivo, Oryza sativa; settings: Flood, 250 g ai/ha, 0 to 100 scale where 0 is no effect and 100 is complete control
Procedure, shortened: as §1

barnyardgrass [3] = test: Test A postemergence; assay type: in vivo, Echinochloa crus-galli
Procedure, shortened: as §3

yellow nutsedge = test: Test C postemergence; assay type: in vivo, Cyperus esculentus
Procedure, shortened: as §2

barnyardgrass [4] = test: Test B flooded paddy test; assay type: in vivo, Echinochloa crus-galli; settings: Flood, 250 g ai/ha, 0 to 100 scale where 0 is no effect and 100 is complete control
Procedure, shortened: as §1

large (Lg) crabgrass = test: Test C postemergence; assay type: in vivo, Digitaria sanguinalis
Procedure, shortened: as §2

lambsquarters = test: Test C postemergence; assay type: in vivo, Chenopodium album
Procedure, shortened: as §2

[5] = 16 g ai/ha, postemergence, 0 is no effect, 100 is complete control
[6] = 31 g ai/ha, postemergence, visual rating, scale 0 to 100 (0 no effect, 100 complete control), 13 to 15 days
[7] = 125 g ai/ha, postemergence, visual rating, scale 0 to 100 (0 no effect, 100 complete control)
[8] = Postemergence, 62 g ai/ha, scale 0 to 100 (0 no effect, 100 complete control), 13 to 15 days
[9] = 31 g ai/ha, 0 to 100 scale, 0 no effect, 100 complete control
[10] = 125 g ai/ha, 0 to 100 scale, 0 no effect, 100 complete control

Fc1cccc(Oc2ncc(Cl)cn2)c1-n1cc(C(F)F)nn1 [Compound 141, 5-chloro-2-[2-[4-(difluoromethyl)-1H-1,2,3-triazol-1-yl]-3-fluorophenoxy]pyrimidine]
pest or weed control at 250 g/ha (sedge, umbrella; Cyperus difformis, read-out: Plant response rating, Sedge, Umbrella): 90% | pest or weed control at 16 g/ha (barnyardgrass [1]; Echinochloa crus-galli, post-emergence, 16 g ai/ha, postemergence, 0 is no effect, 100 is complete control, read-out: Plant response rating (0 to 100), Barnyardgrass): 15% | pest or weed control at 125 g/ha (barnyardgrass [1]; Echinochloa crus-galli, post-emergence, 125 g ai/ha, postemergence, visual rating, scale 0 to 100 (0 no effect, 100 complete control), read-out: Plant response rating, Barnyardgrass): 40% | pest or weed control at 31 g/ha (barnyardgrass [1]; Echinochloa crus-galli, post-emergence, Postemergence, 31 g ai/ha, scale 0 to 100 (0 no effect, 100 complete control), 13 to 15 days, read-out: Plant response rating, Barnyardgrass): 15% | pest or weed control at 62 g/ha (barnyardgrass [1]; Echinochloa crus-galli, post-emergence, Postemergence, 62 g ai/ha, scale 0 to 100 (0 no effect, 100 complete control), read-out: Plant response rating, Barnyardgrass): 20% | pest or weed control at 31 g/ha (barnyardgrass [2]; Echinochloa crus-galli, pre-emergence, 240 h, 31 g ai/ha, 0 to 100 scale where 0 is no effect and 100 is complete control, visual, approximately 10 days, read-out: Plant response rating, Barnyardgrass): 90% | pest or weed control at 125 g/ha (barnyardgrass [2]; Echinochloa crus-galli, pre-emergence, 240 h, 125 g ai/ha, 0 to 100 scale where 0 is no effect and 100 is complete control, read-out: Plant response rating, Barnyardgrass): 100% | pest or weed control at 16 g/ha (morningglory; Ipomoea, post-emergence, 16 g ai/ha, postemergence, 0 is no effect, 100 is complete control, read-out: Plant response rating (0 to 100), Morningglory): 85% | pest or weed control at 125 g/ha (morningglory; Ipomoea, post-emergence, 125 g ai/ha, postemergence, visual rating, scale 0 to 100 (0 no effect, 100 complete control), read-out: Plant response rating, Morningglory): 100% | pest or weed control at 62 g/ha (morningglory; Ipomoea, post-emergence, Postemergence, 62 g ai/ha, scale 0 to 100 (0 no effect, 100 complete control), read-out: Plant response rating, Morningglory): 95% | pest or weed control at 16 g/ha (giant foxtail; Setaria faberi, post-emergence, 16 g ai/ha, postemergence, 0 is no effect, 100 is complete control, read-out: Plant response rating (0 to 100), Foxtail, Giant): 10% | pest or weed control at 125 g/ha (giant foxtail; Setaria faberi, post-emergence, 125 g ai/ha, postemergence, visual rating, scale 0 to 100 (0 no effect, 100 complete control), read-out: Plant response rating, Foxtail, Giant): 70% | pest or weed control at 62 g/ha (giant foxtail; Setaria faberi, post-emergence, Postemergence, 62 g ai/ha, scale 0 to 100 (0 no effect, 100 complete control), read-out: Plant response rating, Foxtail, Giant): 45% | pest or weed control at 16 g/ha (wild oat; Avena fatua, post-emergence, 16 g ai/ha, postemergence, 0 is no effect, 100 is complete control, read-out: Plant response rating (0 to 100), Oat, Wild): 0% | pest or weed control at 125 g/ha (wild oat; Avena fatua, post-emergence, 125 g ai/ha, postemergence, visual rating, scale 0 to 100 (0 no effect, 100 complete control), read-out: Plant response rating, Oat, Wild): 30% | pest or weed control at 62 g/ha (wild oat; Avena fatua, post-emergence, Postemergence, 62 g ai/ha, scale 0 to 100 (0 no effect, 100 complete control), read-out: Plant response rating, Oat, Wild): 10% | pest or weed control at 31 g/ha (pigweed; Amaranthus retroflexus, post-emergence, 31 g ai/ha, 0 to 100 scale, 0 no effect, 100 complete control, read-out: Plant response rating, Pigweed): 100% | pest or weed control at 125 g/ha (pigweed; Amaranthus retroflexus, post-emergence, 240 h, 125 g ai/ha, 0 to 100 scale where 0 is no effect and 100 is complete control, read-out: Pigweed plant response rating): 100% | pest or weed control at 16 g/ha (chickweed; Stellaria media, post-emergence, 16 g ai/ha, postemergence, 0 is no effect, 100 is complete control, read-out: Plant response rating (0 to 100), Chickweed): 70% | pest or weed control at 125 g/ha (chickweed; Stellaria media, post-emergence, 125 g ai/ha, postemergence, visual rating, scale 0 to 100 (0 no effect, 100 complete control), read-out: Plant response rating, Chickweed): 100% | pest or weed control at 62 g/ha (chickweed; Stellaria media, post-emergence, Postemergence, 62 g ai/ha, scale 0 to 100 (0 no effect, 100 complete control), read-out: Plant response rating, Chickweed): 95% | plant injury at 250 g/ha (rice; Oryza sativa, read-out: Plant response rating, Rice): 45% | pest or weed control at 31 g/ha (barnyardgrass [3]; Echinochloa crus-galli, post-emergence, 240 h, 31 g ai/ha, 0 to 100 scale, 0 no effect, 100 complete control, read-out: Plant response rating, Barnyardgrass): 60% | pest or weed control at 125 g/ha (barnyardgrass [3]; Echinochloa crus-galli, post-emergence, 240 h, 125 g ai/ha, 0 to 100 scale where 0 is no effect and 100 is complete control, read-out: Barnyardgrass plant response rating): 100% | pest or weed control at 16 g/ha (yellow nutsedge; Cyperus, post-emergence, 16 g ai/ha, postemergence, 0 is no effect, 100 is complete control, read-out: Plant response rating (0 to 100), Nutsedge, Yellow): 10% | pest or weed control at 125 g/ha (yellow nutsedge; Cyperus, post-emergence, 125 g ai/ha, postemergence, visual rating, scale 0 to 100 (0 no effect, 100 complete control), read-out: Plant response rating, Nutsedge, Yellow): 15% | pest or weed control at 62 g/ha (yellow nutsedge; Cyperus, post-emergence, Postemergence, 62 g ai/ha, scale 0 to 100 (0 no effect, 100 complete control), read-out: Plant response rating, Nutsedge, Yellow): 15% | pest or weed control at 250 g/ha (barnyardgrass [4]; Echinochloa crus-galli, read-out: Plant response rating, Barnyardgrass): 100% | pest or weed control at 16 g/ha (large (Lg) crabgrass; Digitaria sanguinalis, post-emergence, 16 g ai/ha, postemergence, 0 is no effect, 100 is complete control, read-out: Plant response rating (0 to 100), Crabgrass, Large): 5% | pest or weed control at 125 g/ha (large (Lg) crabgrass; Digitaria sanguinalis, post-emergence, 125 g ai/ha, postemergence, visual rating, scale 0 to 100 (0 no effect, 100 complete control), read-out: Plant response rating, Crabgrass, Large): 45% | pest or weed control at 62 g/ha (large (Lg) crabgrass; Digitaria sanguinalis, post-emergence, Postemergence, 62 g ai/ha, scale 0 to 100 (0 no effect, 100 complete control), read-out: Plant response rating, Crabgrass, Large): 10% | pest or weed control at 16 g/ha (lambsquarters; Chenopodium album, post-emergence, 16 g ai/ha, postemergence, 0 is no effect, 100 is complete control, read-out: Plant response rating (0 to 100), Lambsquarters): 85% | pest or weed control at 125 g/ha (lambsquarters; Chenopodium album, post-emergence, 125 g ai/ha, postemergence, visual rating, scale 0 to 100 (0 no effect, 100 complete control), read-out: Plant response rating, Lambsquarters): 100% | pest or weed control at 62 g/ha (lambsquarters; Chenopodium album, post-emergence, Postemergence, 62 g ai/ha, scale 0 to 100 (0 no effect, 100 complete control), read-out: Plant response rating, Lambsquarters): 100%

FC(F)Oc1cnn(-c2c(Cl)cccc2Oc2ncc(Cl)cn2)c1 [Compound 258]
Plant response rating, Sedge, Umbrella (sedge, umbrella): 95 | Plant response rating (0 to 100), Barnyardgrass (barnyardgrass [1]; [5]): 5 | Barnyardgrass plant response rating (barnyardgrass [1]; [6]): 10 | Plant response rating, Barnyardgrass (barnyardgrass [1]; [7]): 10 | Plant response rating, Barnyardgrass (barnyardgrass [1]; [8]): 10 | Plant response rating, Barnyardgrass (barnyardgrass [2]; 31 g ai/ha, 0 to 100 scale where 0 is no effect and 100 is complete control, visual, approximately 10 days): 50 | Barnyardgrass plant response rating (0 to 100 scale, 0 is no effect, 100 is complete control) (barnyardgrass [2]; 125 g ai/ha): 90 | Plant response rating (0 to 100), Morningglory (morningglory; [5]): 65 | Morningglory plant response rating (morningglory; [6]): 85 | Plant response rating, Morningglory (morningglory; [7]): 95 | Plant response rating, Morningglory (morningglory; [8]): 85 | Plant response rating (0 to 100), Foxtail, Giant (giant foxtail; [5]): 5 | Foxtail, Giant plant response rating (giant foxtail; [6]): 20 | Plant response rating, Foxtail, Giant (giant foxtail; [7]): 45 | Plant response rating, Foxtail, Giant (giant foxtail; [8]): 25 | Plant response rating (0 to 100), Oat, Wild (wild oat; [5]): 5 | Oat, Wild plant response rating (wild oat; [6]): 5 | Plant response rating, Oat, Wild (wild oat; [7]): 15 | Plant response rating, Oat, Wild (wild oat; [8]): 10 | Plant response rating, Pigweed (pigweed; [9]): 80 | Plant response rating, Pigweed (pigweed; [10]): 100 | Plant response rating (0 to 100), Chickweed (chickweed; [5]): 50 | Chickweed plant response rating (chickweed; [6]): 50 | Plant response rating, Chickweed (chickweed; [7]): 95 | Plant response rating, Chickweed (chickweed; [8]): 90 | Plant response rating, Rice (rice): 30 | Plant response rating, Barnyardgrass (barnyardgrass [3]; [9]): 10 | Plant response rating, Barnyardgrass (barnyardgrass [3]; [10]): 90 | Plant response rating (0 to 100), Nutsedge, Yellow (yellow nutsedge; [5]): 0 | Nutsedge, Yellow plant response rating (yellow nutsedge; [6]): 0 | Plant response rating, Nutsedge, Yellow (yellow nutsedge; [7]): 5 | Plant response rating, Nutsedge, Yellow (yellow nutsedge; [8]): 5 | Plant response rating, Barnyardgrass (barnyardgrass [4]): 60 | Plant response rating (0 to 100), Crabgrass, Large (large (Lg) crabgrass; [5]): 5 | Crabgrass, Large plant response rating (large (Lg) crabgrass; [6]): 5 | Plant response rating, Crabgrass, Large (large (Lg) crabgrass; [7]): 15 | Plant response rating, Crabgrass, Large (large (Lg) crabgrass; [8]): 10 | Plant response rating (0 to 100), Lambsquarters (lambsquarters; [5]): 50 | Lambsquarters plant response rating (lambsquarters; [6]): 65 | Plant response rating, Lambsquarters (lambsquarters; [7]): 90 | Plant response rating, Lambsquarters (lambsquarters; [8]): 90
